Test results as given in article PMC10073293, “Discovery of IHMT-MST1-39 as a novel MST1 kinase inhibitor and AMPK activator for the treatment of diabetes mellitus” (Signal Transduction and Targeted Therapy, 2023).
pIC50: −log10 of the molar value.

What was measured:
[1] = target: T1, MST1 (mammalian sterile 20-like kinase 1) (Homo sapiens, UniProt Q13043)
T1 construct: gene STK4

MST2 = target: T2, MST2 (Homo sapiens, UniProt Q13188); assay: biochemical kinase assay; KD also determined (Fig. 1c, d); KINOMEscan binding
T2 construct: gene STK3
T2 sequence (Q13188 1-491): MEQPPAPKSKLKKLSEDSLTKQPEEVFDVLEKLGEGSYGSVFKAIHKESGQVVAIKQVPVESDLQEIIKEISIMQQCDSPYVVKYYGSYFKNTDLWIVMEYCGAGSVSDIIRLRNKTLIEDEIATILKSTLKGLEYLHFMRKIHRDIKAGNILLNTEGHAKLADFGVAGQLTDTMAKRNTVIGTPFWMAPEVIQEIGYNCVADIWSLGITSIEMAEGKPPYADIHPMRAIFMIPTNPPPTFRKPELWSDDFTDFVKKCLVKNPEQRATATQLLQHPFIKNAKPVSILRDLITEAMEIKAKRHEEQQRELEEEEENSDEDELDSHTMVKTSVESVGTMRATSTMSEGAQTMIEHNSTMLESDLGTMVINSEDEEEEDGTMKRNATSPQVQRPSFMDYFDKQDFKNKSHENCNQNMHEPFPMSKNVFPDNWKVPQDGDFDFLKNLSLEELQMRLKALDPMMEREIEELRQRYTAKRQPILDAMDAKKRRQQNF

T1 sequence (Q13043 whole entry): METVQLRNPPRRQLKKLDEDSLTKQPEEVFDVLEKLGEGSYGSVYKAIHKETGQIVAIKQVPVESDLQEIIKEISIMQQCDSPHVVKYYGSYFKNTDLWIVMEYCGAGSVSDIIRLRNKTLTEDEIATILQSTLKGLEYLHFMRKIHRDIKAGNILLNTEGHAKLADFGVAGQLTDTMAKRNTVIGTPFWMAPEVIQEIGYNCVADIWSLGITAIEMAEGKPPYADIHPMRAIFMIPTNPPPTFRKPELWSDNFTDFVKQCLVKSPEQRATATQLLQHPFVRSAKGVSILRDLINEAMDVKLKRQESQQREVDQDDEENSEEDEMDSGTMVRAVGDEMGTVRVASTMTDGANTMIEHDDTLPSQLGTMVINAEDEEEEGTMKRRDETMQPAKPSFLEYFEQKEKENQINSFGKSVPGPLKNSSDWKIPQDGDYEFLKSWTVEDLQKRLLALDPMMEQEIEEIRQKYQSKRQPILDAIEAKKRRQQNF

CN1C(=O)C(c2c(F)cccc2F)N(C)c2nc(Nc3ccc(S(N)(=O)=O)cc3)ncc21 (centres unmarked) [IHMT-MST1-39]
pIC50 [1]: 7.38 | pIC50 (MST2): 6.96
